Series [1] relates to QTc interval. Nature of the series: ECG QTc interval in anesthetized beagle dogs. In kind it is in vivo. The settings on record: for QTc interval after drug administration: at 35 min after administration, P = NS. As for the experimental part: QTc (corrected QT) interval of ECG was analyzed in anesthetized beagle dogs before and at 35 min after drug administration. QTc interval was not altered (P = NS, before vs. after drug administration) in vehicle animals (n = 5, 273.6 ± 2.6 ms vs. 276.1 ± 4.2 ms) and animals treated with 3 mg/kg (n = 6, 279.5 ± 2.5 ms vs. 282.3 ± 1.7 ms), 6 mg/kg (n = 8, 276.9 ± 2.4 ms vs. 279.1 ± 2.3 ms), or 12 mg/kg (n = 7, 274.1 ± 3.5 ms vs. 278.7 ± 2.9 ms) acacetin prodrug. […]
China) were anesthetized with pentobarbital (40 mg/kg, i.v.), supplemented as necessary during the experiment. The animal was kept on an operation table maintained at 37°C, intubated and ventilated with room air. The left femoral vein was cannulated to maintain fluid balance, anesthesia, and test articles. Lead II electrocardiogram (ECG) was continuously monitored with using a digital recording system (RM6240, Chengdu Instruments, China)
An action potential (MAP) recording- and pacing-catheter (Boston Scientific Ltd) was introduced to the right atrium through right jugular vein, and an electrical pacing catheter was introduced to left ventricle via […] for ventricular pacing (when necessary).
Bilateral cervical vagal nerves were isolated and bipolar electrodes were placed to stimulate efferent vagal nerves with 15 Hz, 0.2 ms duration voltage step (80-100% threshold) to induce a 50% reduction of heart rate. Ventricular pacing was performed with 2-ms voltage pulses (2.5 Hz, 150% diastolic threshold) when vagal nerves were continuously stimulated. […]
Instruments, China). […]

Series [2] has as its target T1, hERG channels (Homo sapiens, UniProt Q12809).
T1 construct: expressed in transfected cells; host or cells: HEK 293
Nature of the series: hERG current in HEK 293 cells. The series is classed as cell-based. The following applies: 30 μM, n = 4, data not shown.

Series [3] concerns the target T2, hKv4.3 current (Ito, KCND3) (Homo sapiens, UniProt Q9UK17).
T2 construct: expressed in transfected cells
T2 sequence (Q9UK17 1-655): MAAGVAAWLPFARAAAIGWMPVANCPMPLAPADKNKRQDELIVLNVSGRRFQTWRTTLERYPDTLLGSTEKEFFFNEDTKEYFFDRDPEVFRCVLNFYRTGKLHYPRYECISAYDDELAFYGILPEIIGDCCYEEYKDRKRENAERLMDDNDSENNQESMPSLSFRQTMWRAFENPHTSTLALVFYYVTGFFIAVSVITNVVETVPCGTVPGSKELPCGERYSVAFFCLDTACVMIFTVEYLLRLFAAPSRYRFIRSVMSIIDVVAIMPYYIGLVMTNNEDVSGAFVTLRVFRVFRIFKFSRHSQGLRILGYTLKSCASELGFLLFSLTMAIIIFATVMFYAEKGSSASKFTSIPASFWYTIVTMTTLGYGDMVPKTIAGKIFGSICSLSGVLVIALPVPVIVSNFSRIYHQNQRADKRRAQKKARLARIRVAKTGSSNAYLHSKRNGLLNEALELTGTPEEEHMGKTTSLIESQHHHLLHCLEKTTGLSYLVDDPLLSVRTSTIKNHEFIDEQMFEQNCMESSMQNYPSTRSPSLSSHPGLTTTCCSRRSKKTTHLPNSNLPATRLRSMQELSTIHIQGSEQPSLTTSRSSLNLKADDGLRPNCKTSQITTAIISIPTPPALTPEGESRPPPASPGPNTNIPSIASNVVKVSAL
Put plainly: Whole-cell patch clamp of hKv4.3 current in HEK 293 cells. The series is classed as cell-based. The settings on record: 30 μM, at +50 mV, n = 5. The method, then:
(§1) Whole-cell currents of hKv1.5 and hKv4.3 were recorded in established HEK 293 cell lines stably expressing hKv1.5 (KCN5A) and hKv4.3 (KCND3) and IKACh was determined in isolated rat atrial myocytes as described previously[12][31][32] and in Supplemental Materials. […]
(§2) Effects of acacetin prodrug on cardiac potassium currents
(§3) Whole-cell currents of hKv1.5 and hKv4.3 were recorded in established HEK 293 cell lines stably expressing hKv1.5 (KCN5A) and hKv4.3 (KCND3).1, 2 The cells were cultured in Dulbecco’s modified eagle’s medium (DMEM, Invitrogen, Hong Kong) supplemented with 10% fetal bovine serum and 400 µg/mL G418. Cells on a coverslip were transferred to an open cell chamber (0.5 ml) mounted on the stage of an inverted microscope and superfused with Tyrode’s solution at 2 mL/min. The whole cell patch-clamp technique was used as described previously.1, 2 The whole-cell membrane currents were measured using an EPC-10 amplifier and Pulse software (Heka Elektronik, Lambrecht, Germany). Borosilicate glass electrodes (1.2-mm OD) were pulled with a Brown/Flaming puller (model P-97, Sutter Instrument, Nato, CA) and had resistances of 1.5~2.5 MΩ when filled with the pipette solution. A 3-M KCl agar bridge was used as the reference electrode. The tip potential was zeroed before the patch pipette contacted the cell. […]
In general terms: Patch clamp records ionic current or voltage across a cell membrane.

Series [4] is described as follows: Aqueous solubility by HPLC in H2O, 5% glucose and 0.9% NaCl. The series is classed as physicochemical. The settings on record: for solubility: 24 °C, room temperature (23–25 °C), n = 3, read-out: maximum solubility.
Series [5] concerns the target T3, hKv1.5 current (IKur, KCN5A) (Homo sapiens, UniProt P22460).
T3 construct: expressed in transfected cells
Put plainly: Whole-cell patch clamp of hKv1.5 current in HEK 293 cells. The series is classed as cell-based. The settings on record: 30 μM, at +50 mV, n = 5. The method, then: as §1, §2, §3

Like-named read-outs stand apart in the source and are kept apart here.

T1 sequence (Q12809 whole entry): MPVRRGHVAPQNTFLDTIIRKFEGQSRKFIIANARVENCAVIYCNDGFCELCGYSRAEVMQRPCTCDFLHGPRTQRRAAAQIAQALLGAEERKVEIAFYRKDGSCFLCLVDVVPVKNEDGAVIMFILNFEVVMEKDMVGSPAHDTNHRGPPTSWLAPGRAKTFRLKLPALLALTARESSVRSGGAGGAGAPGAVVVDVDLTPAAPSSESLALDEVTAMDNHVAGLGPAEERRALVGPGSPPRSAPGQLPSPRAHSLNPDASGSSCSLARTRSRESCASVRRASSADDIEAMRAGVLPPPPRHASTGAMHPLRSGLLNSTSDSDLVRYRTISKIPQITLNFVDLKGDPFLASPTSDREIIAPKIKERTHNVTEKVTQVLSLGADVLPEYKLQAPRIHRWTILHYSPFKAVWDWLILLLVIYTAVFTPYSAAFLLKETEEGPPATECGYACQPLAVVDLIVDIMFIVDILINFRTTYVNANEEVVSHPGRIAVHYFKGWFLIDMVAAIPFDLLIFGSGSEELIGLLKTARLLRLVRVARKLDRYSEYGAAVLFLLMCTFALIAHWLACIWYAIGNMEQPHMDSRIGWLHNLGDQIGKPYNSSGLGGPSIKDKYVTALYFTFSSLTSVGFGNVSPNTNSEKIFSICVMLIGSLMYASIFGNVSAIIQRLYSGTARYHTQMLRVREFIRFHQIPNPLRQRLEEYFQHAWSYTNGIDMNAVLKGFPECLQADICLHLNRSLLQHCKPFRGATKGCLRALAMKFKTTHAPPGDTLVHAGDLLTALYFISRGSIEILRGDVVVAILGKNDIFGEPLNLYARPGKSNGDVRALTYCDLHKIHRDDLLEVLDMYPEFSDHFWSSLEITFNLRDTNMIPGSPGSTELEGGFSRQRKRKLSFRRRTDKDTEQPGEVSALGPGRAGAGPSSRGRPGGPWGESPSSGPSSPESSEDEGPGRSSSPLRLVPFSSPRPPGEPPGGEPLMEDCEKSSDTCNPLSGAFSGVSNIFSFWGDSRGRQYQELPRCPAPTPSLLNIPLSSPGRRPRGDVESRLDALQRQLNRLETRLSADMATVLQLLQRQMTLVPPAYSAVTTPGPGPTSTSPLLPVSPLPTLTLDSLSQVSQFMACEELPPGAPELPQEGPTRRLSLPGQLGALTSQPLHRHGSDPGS
T3 sequence (P22460 whole entry): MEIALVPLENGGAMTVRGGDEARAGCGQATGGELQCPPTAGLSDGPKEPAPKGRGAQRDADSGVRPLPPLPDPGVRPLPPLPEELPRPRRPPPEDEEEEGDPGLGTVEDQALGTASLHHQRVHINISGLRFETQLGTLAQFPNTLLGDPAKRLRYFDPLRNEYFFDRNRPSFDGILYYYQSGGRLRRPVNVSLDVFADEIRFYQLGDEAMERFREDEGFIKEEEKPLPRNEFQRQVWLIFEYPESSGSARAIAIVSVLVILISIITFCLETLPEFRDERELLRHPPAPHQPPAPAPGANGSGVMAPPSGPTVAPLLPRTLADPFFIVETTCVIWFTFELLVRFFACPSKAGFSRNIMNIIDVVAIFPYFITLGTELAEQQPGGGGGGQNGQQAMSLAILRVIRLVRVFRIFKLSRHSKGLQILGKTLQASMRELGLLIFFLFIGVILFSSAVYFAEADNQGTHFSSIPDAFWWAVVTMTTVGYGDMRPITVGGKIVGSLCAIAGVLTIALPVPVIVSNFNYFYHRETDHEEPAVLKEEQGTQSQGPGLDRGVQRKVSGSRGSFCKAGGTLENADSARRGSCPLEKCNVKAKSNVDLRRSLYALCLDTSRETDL

In the case of `COc1ccc(-c2cc(=O)c3c(O)cc(OP(=O)([O-])[O-])cc3o2)cc1.[Na+].[Na+]` [acacetin prodrug, phosphate sodium salt of acacetin], the “QTc interval after drug administration” value in series [1] (3 mg/kg i.v., n = 6, before 279.5 ± 2.5 ms) is 282.3 ± 1.7 ms; in series [1] (6 mg/kg i.v., n = 8, before 276.9 ± 2.4 ms) it was 279.1 ± 2.3 ms; in series [1] (12 mg/kg i.v., n = 7, before 274.1 ± 3.5 ms) it was 278.7 ± 2.9 ms. For the same compound, in series [1] (3, 6 and 12 mg/kg i.v., beagle dogs), the “effect on QT interval” value is “no effect”. For the same compound, in series [2], the “effect on hERG channels” value is reported as “no such effect”. In addition, the “inhibition of hKv4.3 current” value in series [3] is listed as “no significant inhibition”. Besides, the solubility – broadly, the concentration that dissolves in the medium under given conditions – in series [4] (saline or isotonic, in 0.9% NaCl) was found to be 88.6 ± 4.3 mg/mL; in series [4] (saline or isotonic, in 5% glucose), 91.4 ± 2.7 mg/mL; in series [4] (water, in H2O), 126 ± 2.5 mg/mL. For the same compound, the “solubility higher compared to parent compound acacetin” value in series [4] (in 5% glucose or 0.9% NaCl) is reported as “more than forty five thousand folds higher”; in series [4] (in H2O), “more than 1.9 million folds”. In addition, the “inhibition of hKv1.5 current” value in series [5] is listed as “no significant inhibition”.
